Legend:
Assay in all cases: DPP Inhibition Assay
Details in all cases: pH 7.5; 22 °C
[1] = target: Dipeptidyl peptidase 4 (Homo sapiens, UniProt P27487)
Description: (§1) For each concentration of inhibitor or DMSO control, the steady state rates were used to fit a rectangular hyperbola, from which Km and Vmax values were determined by nonlinear regression analysis. The ratio of the Km/Vmax vs inhibitor concentration was plotted and the negative X-intercept, as calculated by linear regression, was the competitive Ki.

[2] = target: Dipeptidyl peptidase 8 (Homo sapiens, UniProt Q6V1X1)
Description: as §1

[3] = target: Dipeptidyl peptidase 9 (Homo sapiens, UniProt Q86TI2)
Description: as §1

Dipeptidyl peptidase 4, sequence (P27487 whole entry): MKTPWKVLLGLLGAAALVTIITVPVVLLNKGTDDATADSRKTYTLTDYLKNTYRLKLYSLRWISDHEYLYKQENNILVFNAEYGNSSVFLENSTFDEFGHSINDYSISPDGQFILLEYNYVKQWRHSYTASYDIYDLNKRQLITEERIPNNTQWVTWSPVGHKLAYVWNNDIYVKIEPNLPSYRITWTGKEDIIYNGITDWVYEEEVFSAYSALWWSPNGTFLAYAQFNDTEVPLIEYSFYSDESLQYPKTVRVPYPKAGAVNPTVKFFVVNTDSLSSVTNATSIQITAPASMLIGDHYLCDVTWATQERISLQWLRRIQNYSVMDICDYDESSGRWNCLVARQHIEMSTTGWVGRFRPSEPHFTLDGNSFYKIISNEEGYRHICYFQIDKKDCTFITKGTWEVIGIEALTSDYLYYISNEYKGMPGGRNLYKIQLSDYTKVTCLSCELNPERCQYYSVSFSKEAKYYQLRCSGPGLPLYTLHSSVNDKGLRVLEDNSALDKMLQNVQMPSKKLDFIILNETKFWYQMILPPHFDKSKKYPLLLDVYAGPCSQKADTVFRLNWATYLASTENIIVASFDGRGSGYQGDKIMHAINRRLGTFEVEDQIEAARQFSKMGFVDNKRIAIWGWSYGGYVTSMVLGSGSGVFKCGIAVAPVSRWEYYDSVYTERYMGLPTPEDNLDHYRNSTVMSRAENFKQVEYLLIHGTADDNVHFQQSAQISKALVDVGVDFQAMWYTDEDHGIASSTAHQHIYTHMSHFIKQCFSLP
Dipeptidyl peptidase 9, sequence (Q86TI2 whole entry): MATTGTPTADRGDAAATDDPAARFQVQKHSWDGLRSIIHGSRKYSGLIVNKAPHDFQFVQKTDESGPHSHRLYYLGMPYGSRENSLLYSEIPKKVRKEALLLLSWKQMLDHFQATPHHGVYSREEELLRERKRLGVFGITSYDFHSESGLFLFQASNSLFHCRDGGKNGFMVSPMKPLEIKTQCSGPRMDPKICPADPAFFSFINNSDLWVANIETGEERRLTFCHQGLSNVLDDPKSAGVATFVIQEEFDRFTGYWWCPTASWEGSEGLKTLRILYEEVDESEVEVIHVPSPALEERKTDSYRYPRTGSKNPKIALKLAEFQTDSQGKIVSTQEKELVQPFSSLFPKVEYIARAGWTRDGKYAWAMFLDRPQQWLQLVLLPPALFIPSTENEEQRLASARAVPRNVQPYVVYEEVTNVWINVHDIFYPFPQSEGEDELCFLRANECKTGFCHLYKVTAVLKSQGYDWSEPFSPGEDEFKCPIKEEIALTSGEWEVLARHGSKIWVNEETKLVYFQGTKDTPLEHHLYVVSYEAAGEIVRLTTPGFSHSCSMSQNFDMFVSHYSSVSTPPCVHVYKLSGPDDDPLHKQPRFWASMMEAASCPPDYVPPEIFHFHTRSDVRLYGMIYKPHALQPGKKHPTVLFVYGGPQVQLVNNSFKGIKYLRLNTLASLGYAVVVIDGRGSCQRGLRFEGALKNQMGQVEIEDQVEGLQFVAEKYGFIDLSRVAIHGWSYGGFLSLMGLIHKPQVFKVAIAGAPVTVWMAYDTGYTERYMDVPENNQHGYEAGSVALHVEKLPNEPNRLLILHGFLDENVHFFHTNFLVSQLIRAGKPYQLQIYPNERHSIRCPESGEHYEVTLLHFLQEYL
Dipeptidyl peptidase 8, sequence (Q6V1X1 whole entry): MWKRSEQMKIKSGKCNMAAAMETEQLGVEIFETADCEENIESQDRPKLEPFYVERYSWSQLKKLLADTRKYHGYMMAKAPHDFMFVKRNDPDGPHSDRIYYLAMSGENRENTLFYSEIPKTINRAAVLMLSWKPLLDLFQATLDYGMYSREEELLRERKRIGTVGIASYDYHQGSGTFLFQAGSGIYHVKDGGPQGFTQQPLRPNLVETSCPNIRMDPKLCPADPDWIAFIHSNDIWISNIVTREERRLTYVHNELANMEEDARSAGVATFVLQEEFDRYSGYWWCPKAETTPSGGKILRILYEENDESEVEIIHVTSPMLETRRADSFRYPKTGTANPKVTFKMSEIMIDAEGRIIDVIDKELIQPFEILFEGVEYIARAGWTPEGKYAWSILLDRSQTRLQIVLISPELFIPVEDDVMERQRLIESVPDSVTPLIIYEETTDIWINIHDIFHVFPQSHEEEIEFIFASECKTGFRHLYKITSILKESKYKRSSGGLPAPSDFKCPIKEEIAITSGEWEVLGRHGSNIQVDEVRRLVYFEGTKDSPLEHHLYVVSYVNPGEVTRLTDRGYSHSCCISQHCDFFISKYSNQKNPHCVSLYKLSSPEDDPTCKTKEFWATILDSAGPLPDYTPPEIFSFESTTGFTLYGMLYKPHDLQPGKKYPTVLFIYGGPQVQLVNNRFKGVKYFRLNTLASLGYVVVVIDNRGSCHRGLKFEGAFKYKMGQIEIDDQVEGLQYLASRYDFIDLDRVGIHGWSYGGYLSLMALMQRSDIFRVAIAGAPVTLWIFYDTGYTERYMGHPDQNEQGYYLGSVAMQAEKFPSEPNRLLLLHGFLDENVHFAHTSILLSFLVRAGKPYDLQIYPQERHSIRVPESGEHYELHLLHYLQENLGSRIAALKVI

| Ki [1] [nM] | Ki [2] [µM] | Ki [3] [µM] | Structure (SMILES) |
| --- | --- | --- | --- |
| < 140 | – | – | N[C@H]1CC(c2ccccc2)=CC[C@@H]1c1ccccc1Cl [(1S,6R)-6-(2-chlorophenyl)-3-phenylcyclohex-3-en-1-aminium; 2,2,2-trifluoroacetate] |
| 1.3 | > 30 | 4 | N[C@H]1CC(C(=O)N2CCn3c(nnc3C(F)(F)F)C2)=CC[C@@H]1c1cc(F)c(F)cc1F [(1S,6R)-3-{[3-(trifluoromethyl)-5H,6H,7H,8H-[1,2,4]triazolo[3,4-a]pyrazin-7-yl]carbonyl}-6-(2,4,5-trifluorophenyl)cyclohex-3-en-1-aminium; 2,2,2-trifluoroacetate] |
